Patent publication US20170166561A1, “QUINUCLIDINE COMPOUNDS FOR MODULATING ALPHA7-NICOTINIC ACETYLCHOLINE RECEPTOR ACTIVITY” (Alpharmagen, LLC, priority 2014, published 2017)
Structures can show the parent of a compound that is named as a salt. Where two headings read alike, the source gives them in different places.

Assay: Human plasma stability (Protocols 1 and 2)
Type: in vitro ADME
Procedure: Example B6: Human Plasma Stability
Studies were carried out in human plasma. All plasma was obtained from Bioreclamation and collected on sodium heparin. Plasma was adjusted to pH 7.4. A DMSO stock was first prepared for the test compound. An aliquot of the DMSO solution was dosed into 1 mL of plasma, which had been pre-warmed to 37° C., at a final test compound concentration of 1 μM. The vials were kept in a benchtop Thermomixer® for the duration of the experiment. Aliquots (100 μL) were taken at each time point (0, 15, 30, 60, and 120 minutes) and added to 96-well plates which had been pre-filled with 300 μL of acetonitrile. Samples were stored at 4° C. until the end of the experiment. After the final time point was sampled, the plate was mixed and then centrifuged at 3,000 rpm for 10 minutes. Aliquots of the supernatant were removed, diluted 1:1 into distilled water, and analyzed by LC-MS/MS. The peak area response ratio to internal standard (PARR) of the compound at 15, 30, 60 and 120 minutes was compared to the PARR at time 0 to determine the percent of test compound remaining at each time point. Half-lives were calculated using GraphPad software, fitting to a single-phase exponential decay equation.
Studies were carried out in plasma. Plasma was prepared under approval of IRB and IACUC on sodium heparin. The pH of plasma was monitored and used within the range of pH 7.4 to pH 8.0. DMSO stocks were prepared for the test compounds. Aliquots of the DMSO solutions were diluted to 0.05 mM by 0.05 mM Sodium phosphate buffer with 0.5% BSA. Then 10 μL of 0.05 mM solutions were dosed into 90 μL of plasma in duplicates (n=2), which had been pre-warmed to 37° C., at a final test compound concentration of 5 μM. The plates were kept in a 37° C. water bath for the duration of the experiment. At each time point (0, 5, 15, 30, 45, 60, and 120 minutes), 400 μL of acetonitrile was added into corresponding wells. After the final time point was sampled, the plates were shaken at the vibrator (IKA, MTS 2/4) for 10 min (600 rpm/min) and then centrifuged at 5594 g for 15 min (Thermo Multifuge×3R). Aliquots of the supernatant were removed, diluted 1:1 into distilled water, and analyzed by LC-MS/MS. The peak area response ratio to internal standard (PARR) of the compounds at 5, 15, 30, 45, 60, and 120 minutes was compared to the PARR at time 0 to determine the percent of test compound remaining at each time point. Half-lives were calculated using Excel software, fitting to a single-phase exponential decay equation.

[1] = human, Protocol 2, plasma pH 7.4 to 8.0, 5 μM, 37° C., read-out: T1/2

Structure (SMILES) | % Remaining @ 2 h (human, plasma, 1 μM, pH 7.4) [%] | half-life at 5 μM (human, plasma, pH 7.4) [h] | other results
O=C(OCC12CCN(CC1)CC2)c1c[nH]c2ccccc12 [Compound 1, quinuclidin-4-ylmethyl 1H-indole-3-carboxylate] | 11 | – | –
O=C(OCC12CCN(CC1)CC2)c1c[nH]c2ccc(F)cc12 [Compound 12, quinuclidin-4-ylmethyl 5-fluoro-1H-indole-3-carboxylate] | 31 | – | –
O=C(OCC12CCN(CC1)CC2)c1c[nH]c2cc(O)ccc12 [Compound 14, quinuclidin-4-ylmethyl 6-hydroxy-1H-indole-3-carboxylate] | 26 | – | –
COc1ccc2[nH]cc(C(=O)OCC34CCN(CC3)CC4)c2c1 [Compound 18, quinuclidin-4-ylmethyl 5-methoxy-1H-indole-3-carboxylate] | 5.8 | – | –
Cc1ccc2[nH]cc(C(=O)OCC34CCN(CC3)CC4)c2c1 [Compound 20, quinuclidin-4-ylmethyl 5-methyl-1H-indole-3-carboxylate] | 14 | – | –
Cc1cccc2[nH]cc(C(=O)OCC34CCN(CC3)CC4)c12 [Compound 21, quinuclidin-4-ylmethyl 4-methyl-1H-indole-3-carboxylate] | 83 | – | –
O=C(OCC12CCN(CC1)CC2)c1c[nH]c2cc(Br)ccc12 [Compound 22, quinuclidin-4-ylmethyl 6-bromo-1H-indole-3-carboxylate] | 58 | – | –
O=C(OCC12CCN(CC1)CC2)c1c[nH]c2ccc(Br)cc12 [Compound 23, quinuclidin-4-ylmethyl 5-bromo-1H-indole-3-carboxylate] | 21 | – | –
O=C(OCC12CCN(CC1)CC2)c1c[nH]c2cccc(Br)c12 [Compound 24, quinuclidin-4-ylmethyl 4-bromo-1H-indole-3-carboxylate] | 89 | – | –
O=C(OCC12CCN(CC1)CC2)c1c[nH]c2cc(Cl)ccc12 [Compound 26, quinuclidin-4-ylmethyl 6-chloro-1H-indole-3-carboxylate] | 65 | – | –
N#Cc1ccc2c(C(=O)OCC34CCN(CC3)CC4)c[nH]c2c1 [Compound 28, quinuclidin-4-ylmethyl 6-cyano-1H-indole-3-carboxylate] | 79 | – | –
Cl.O=C(OCC12CCN(CC1)CC2)c1c[nH]c2cc3c(cc12)OCCO3 [Compound 30, Quinuclidin-4-ylmethyl 2,3-dihydro-6H-[1,4]dioxino[2,3-f]indole-8-carboxylate hydrochloride] | – | – | % Remaining @ 2 h (Protocol 1, human plasma pH 7.4, 1 μM, 37° C.): 10%
COc1ccc2[nH]cc(C(=O)OCC34CCN(CC3)CC4)c2c1C [Compound 34, quinuclidin-4-ylmethyl 5-methoxy-4-methyl-1H-indole-3-carboxylate] | 55 | – | –
O=C(OCC12CCN(CC1)CC2)c1c[nH]c2cccc(Cl)c12 [Compound 35, quinuclidin-4-ylmethyl 4-chloro-1H-indole-3-carboxylate] | 56 | – | –
COc1cccc2[nH]cc(C(=O)OCC34CCN(CC3)CC4)c12 [Compound 36, quinuclidin-4-ylmethyl 4-methoxy-1H-indole-3-carboxylate] | 2.5 | – | –
COc1cc(C)c2c(C(=O)OCC34CCN(CC3)CC4)c[nH]c2c1 [Compound 37, quinuclidin-4-ylmethyl 6-methoxy-4-methyl-1H-indole-3-carboxylate] | – | – | T1/2 (human, plasma, pH 7.4): ∞
COc1cc(Cl)c2c(C(=O)OCC34CCN(CC3)CC4)c[nH]c2c1 [Compound 38, quinuclidin-4-ylmethyl 4-chloro-6-methoxy-1H-indole-3-carboxylate] | – | – | T1/2 (human, plasma, pH 7.4): ∞
COc1ccc2[nH]cc(C(=O)OCC34CCN(CC3)CC4)c2c1Cl [Compound 39, quinuclidin-4-ylmethyl 4-chloro-5-methoxy-1H-indole-3-carboxylate] | – | 0.711 | –
COc1ccc2[nH]cc(C(=O)OCC34CCN(CC3)CC4)c2c1OC [Compound 40, quinuclidin-4-ylmethyl 4,5-dimethoxy-1H-indole-3-carboxylate] | – | – | T1/2 (human, plasma, pH 7.4): ∞
O=C(OCC12CCN(CC1)CC2)c1c[nH]c2cc(F)cc(Br)c12 [Compound 41, quinuclidin-4-ylmethyl 4-bromo-6-fluoro-1H-indole-3-carboxylate] | – | – | T1/2 (human, plasma, pH 7.4): ∞

Structure (SMILES) | % Remaining @ 2 h (human, plasma, 1 μM, pH 7.4) [%] | half-life at 5 μM (human, plasma, pH 7.4) [h] | other results
O=C(OCC12CCN(CC1)CC2)c1c[nH]c2cc(Cl)cc(Br)c12 [Compound 42, quinuclidin-4-ylmethyl 4-bromo-6-chloro-1H-indole-3-carboxylate] | – | 2.87 | –
Cc1c(F)ccc2[nH]cc(C(=O)OCC34CCN(CC3)CC4)c12 [Compound 43, quinuclidin-4-ylmethyl 5-fluoro-4-methyl-1H-indole-3-carboxylate] | – | – | T1/2 (human, plasma, pH 7.4): ∞
Cc1ccc2c(C(=O)OCC34CCN(CC3)CC4)c[nH]c2c1.Cl [Compound 45, Quinuclidin-4-ylmethyl 6-methyl-1H-indole-3-carboxylate hydrochloride] | – | – | half-life at 5 μM [1]: 1.93 h
O=C(OCC12CCN(CC1)CC2)c1c[nH]c2cc(O)cc(Cl)c12 [Compound 46, quinuclidin-4-ylmethyl 4-chloro-6-hydroxy-1H-indole-3-carboxylate] | – | 14.3 | –
COc1ccc2[nH]cc(C(=O)OCC34CCN(CC3)CC4)c2c1Br [Compound 47, quinuclidin-4-ylmethyl 4-bromo-5-methoxy-1H-indole-3-carboxylate] | – | 4.34 | –
COc1cc(Br)c2c(C(=O)OCC34CCN(CC3)CC4)c[nH]c2c1 [Compound 48, quinuclidin-4-ylmethyl 4-bromo-6-methoxy-1H-indole-3-carboxylate] | – | 982 | –
Cc1cc(Br)c2c(C(=O)OCC34CCN(CC3)CC4)c[nH]c2c1 [Compound 49, quinuclidin-4-ylmethyl 4-bromo-6-methyl-1H-indole-3-carboxylate] | – | 13.8 | –
Cc1cc(Cl)cc2[nH]cc(C(=O)OCC34CCN(CC3)CC4)c12 [Compound 50, quinuclidin-4-ylmethyl 6-chloro-4-methyl-1H-indole-3-carboxylate] | – | – | T1/2 (human, plasma, pH 7.4): ∞
Cl.O=C(OCC12CCN(CC1)CC2)c1c[nH]c2cc(F)c(F)cc12 [Compound 51, Quinuclidin-4-ylmethyl 5,6-difluoro-1H-indole-3-carboxylate hydrochloride] | – | – | half-life at 5 μM [1]: 5.89 h
Cl.O=C(OCC12CCN(CC1)CC2)c1c[nH]c2cc(Cl)c(F)cc12 [Compound 52, Quinuclidin-4-ylmethyl 6-chloro-5-fluoro-1H-indole-3-carboxylate hydrochloride] | – | – | half-life at 5 μM [1]: 8.88 h
O=C(OCC12CCN(CC1)CC2)c1c[nH]c2cc(O)cc(Br)c12 [Compound 53, quinuclidin-4-ylmethyl 4-bromo-6-hydroxy-1H-indole-3-carboxylate] | – | – | half-life at 5 μM [1]: 31.1 h
Cc1cc(C)c2c(C(=O)OCC34CCN(CC3)CC4)c[nH]c2c1 [Compound 54, quinuclidin-4-ylmethyl 4,6-dimethyl-1H-indole-3-carboxylate] | – | 11.2 | –
Cc1cc2c(C(=O)OCC34CCN(CC3)CC4)c[nH]c2cc1O [Compound 55, quinuclidin-4-ylmethyl 6-hydroxy-5-methyl-1H-indole-3-carboxylate] | – | 1.54 | –
COc1cc2[nH]cc(C(=O)OCC34CCN(CC3)CC4)c2cc1C [Compound 56, quinuclidin-4-ylmethyl 6-methoxy-5-methyl-1H-indole-3-carboxylate] | – | 5.72 | –
Cc1cc(C#N)cc2[nH]cc(C(=O)OCC34CCN(CC3)CC4)c12 [Compound 60, quinuclidin-4-ylmethyl 6-cyano-4-methyl-1H-indole-3-carboxylate] | – | 22.9 | –
O=C(OCC12CCN(CC1)CC2)c1c[nH]c2cccc(C3CC3)c12 [Compound 61, Quinuclidin-4-ylmethyl 4-cyclopropyl-1H-indole-3-carboxylate] | – | 14 | –
O=C(OCC12CCN(CC1)CC2)c1c[nH]c2ccc(F)c(Cl)c12 [Compound 62, quinuclidin-4-ylmethyl 4-chloro-5-fluoro-1H-indole-3-carboxylate hydrochloride] | – | 5.91 | –
Cc1ccc2[nH]cc(C(=O)OCC34CCN(CC3)CC4)c2c1Cl [Compound 63, quinuclidin-4-ylmethyl 4-chloro-5-methyl-1H-indole-3-carboxylate] | – | 7.05 | –
Cl.O=C(OCC12CCN(CC1)CC2)c1c[nH]c2cc(F)cc(Cl)c12 [Compound 64, quinuclidin-4-ylmethyl 4-chloro-6-fluoro-1H-indole-3-carboxylate hydrochloride] | – | – | half-life at 5 μM [1]: 12.1 h
